These molecules were tested on Trichostrongylus axei (assay: Effect test for Trichostrongylus axei). Conditions: test chemical solution B added to eggs in 96-well plate, unhatched eggs and inactive larvae counted 4 days after addition, 25°C, relative to untreated plot.
Assay type: in vivo
Design: concentration or dose not given beside the values
Experimental: Agar medium with 1% potato dextrose was aliquoted into 60-µl portions in a 96-well plate, and 30 µl of sterilized water containing Trichostrongylus axei eggs and a freeze-dried Escherichia coli OP50 strain (five eggs, 10 µg/10 µl Escherichia coli) was added to each well. From above, 10 µl of test chemical solution B of the presently invented compound was added to each well, and the plate was left to stand under dark conditions at 25°C.

Compound | efficacy (%)
O=C(Nc1ccc(Cl)cn1)C1=C(O)CC(c2cnc(Cl)c(-c3ccc(F)cc3)c2)NC1=O (stereo not shown) [2-220] | ≥ 50%
O=C(Nc1ccc(Cl)nc1)C1=C(O)CC(c2cnc(Cl)c(-c3ccc(F)cc3)c2)NC1=O (stereo not shown) [2-221] | ≥ 50%
O=C(Nc1ncc(Cl)cc1F)C1=C(O)CC(c2cnc(Cl)c(-c3ccc(F)cc3)c2)NC1=O (stereo not shown) [2-232] | ≥ 50%
O=C(Nc1ccc(C(F)(F)F)nc1)C1=C(O)CC(c2cnc(Cl)c(-c3ccc(F)cc3)c2)NC1=O (stereo not shown) [2-234] | ≥ 50%
O=C(Nc1ccc(F)cn1)C1=C(O)CC(c2cnc(C(F)(F)F)c(-c3ccc(F)cc3)c2)NC1=O (stereo not shown) [2-244] | ≥ 50%
COc1ccc(-c2cc(C3CC(O)=C(C(=O)Nc4ccc(F)cn4)C(=O)N3)cnc2C(F)(F)F)cc1 (stereo not shown) [2-245] | ≥ 50%
O=C(Nc1ccc(F)cn1)C1=C(O)CC(c2cnc(C(F)(F)F)c(-c3cccc(F)c3)c2)NC1=O (stereo not shown) [2-246] | ≥ 50%
COc1cccc(-c2cc(C3CC(O)=C(C(=O)Nc4ccc(F)cn4)C(=O)N3)cnc2C(F)(F)F)c1 (stereo not shown) [2-247] | ≥ 50%
Cc1ccccc1-c1cc(C2CC(O)=C(C(=O)Nc3ccc(F)cn3)C(=O)N2)cnc1C(F)(F)F (stereo not shown) [2-248] | ≥ 50%
O=C(Nc1ccc(F)cn1)C1=C(O)CC(c2cnc(C(F)(F)F)c(-c3ccccc3F)c2)NC1=O (stereo not shown) [2-249] | ≥ 50%
COc1ccccc1-c1cc(C2CC(O)=C(C(=O)Nc3ccc(F)cn3)C(=O)N2)cnc1C(F)(F)F (stereo not shown) [2-250] | ≥ 50%
O=C(Nc1ccc(F)cn1)C1=C(O)CC(c2cnc(C(F)(F)F)c(-c3cccnc3)c2)NC1=O (stereo not shown) [2-251] | ≥ 50%
Cc1cccc(-c2cc(C3CC(O)=C(C(=O)Nc4ccc(F)cn4)C(=O)N3)cnc2Cl)c1 (stereo not shown) [2-252] | ≥ 50%
Cc1cccc(-c2cc(C3CC(O)=C(C(=O)Nc4ccc(Cl)nc4)C(=O)N3)cnc2Cl)c1 (stereo not shown) [2-254] | ≥ 50%
Cc1ccc(NC(=O)C2=C(O)CC(c3cnc(Cl)c(-c4cccc(C)c4)c3)NC2=O)nc1 (stereo not shown) [2-255] | ≥ 50%
Cc1cccc(-c2cc(C3CC(O)=C(C(=O)Nc4ccn(C)n4)C(=O)N3)cnc2Cl)c1 (stereo not shown) [2-256] | ≥ 50%
Cc1cccc(-c2cc(C3CC(O)=C(C(=O)Nc4cc(C#N)ccn4)C(=O)N3)cnc2Cl)c1 (stereo not shown) [2-262] | ≥ 50%
Cc1cccc(-c2cc(C3CC(O)=C(C(=O)Nc4ccc(C#N)nc4)C(=O)N3)cnc2Cl)c1 (stereo not shown) [2-266] | ≥ 50%
Cc1cccc(-c2cc(C3CC(O)=C(C(=O)Nc4ncccc4C)C(=O)N3)cnc2Cl)c1 (stereo not shown) [2-272] | ≥ 50%
Cc1ccc(NC(=O)C2=C(O)CC(c3cnc(Cl)c(-c4cccc(C)c4)c3)NC2=O)nc1 (stereo not shown) [2-273] | ≥ 50%
O=C(Nc1cccnn1)C1=C(O)CC(c2cnc(Cl)c(-c3ccc(F)nc3)c2)NC1=O (stereo not shown) [2-289] | ≥ 50%
Cn1nccc1NC(=O)C1=C(O)CC(c2cnc(Cl)c(-c3ccc(F)cc3)c2)NC1=O (stereo not shown) [2-290] | ≥ 50%
O=C(Nc1nc[nH]n1)C1=C(O)CC(c2cnc(Cl)c(-c3ccc(F)cc3)c2)NC1=O (stereo not shown) [2-291] | ≥ 50%
O=C(Nc1ccc(Cl)nc1)C1=C(O)CC(c2nc(-c3ccnc(F)c3)no2)NC1=O (stereo not shown) [3-060] | ≥ 50%
Cc1cc(-c2noc(C3CC(O)=C(C(=O)Nc4ccc(F)cn4)C(=O)N3)n2)ccn1 (stereo not shown) [3-061] | ≥ 50%
O=C(Nc1ccc(F)cn1)C1=C(O)CC(c2nc(-c3ccncc3F)no2)NC1=O (stereo not shown) [3-064] | ≥ 50%
O=C(Nc1ccc(F)nc1)C1=C(O)CC(c2nc(-c3ccc(F)cc3)no2)NC1=O (stereo not shown) [3-082] | ≥ 50%
O=C(Nc1ccc(F)cn1)C1=C(O)CC(c2nc(-c3cncc(F)c3)no2)NC1=O (stereo not shown) [3-083] | ≥ 50%

Compound | efficacy (%)
Cn1ccc(-c2noc(C3CC(O)=C(C(=O)Nc4ccc(F)cn4)C(=O)N3)n2)n1 (stereo not shown) [3-085] | ≥ 50%
O=C(Nc1ccc(F)cn1)C1=C(O)CC(c2nc(-c3csc(Br)c3)no2)NC1=O (stereo not shown) [3-086] | ≥ 50%
Cc1ccc(-c2noc(C3CC(O)=C(C(=O)Nc4ccc(F)cn4)C(=O)N3)n2)cn1 (stereo not shown) [3-087] | ≥ 50%
O=C(Nc1ccc(F)cn1)C1=C(O)CC(c2nc(-c3cncs3)no2)NC1=O (stereo not shown) [3-097] | ≥ 50%
O=C(Nc1ccc(Cl)cn1)C1=C(O)CC(c2nc(-c3ccc(F)nc3)no2)NC1=O (stereo not shown) [3-102] | ≥ 50%
O=C(Nc1ccc(F)cn1)C1=C(O)CC(c2nc(-c3ccsc3)no2)NC1=O (stereo not shown) [3-110] | ≥ 50%
Cn1nc(Cl)c(-c2noc(C3CC(O)=C(C(=O)Nc4ccc(F)cn4)C(=O)N3)n2)c1Cl (stereo not shown) [3-114] | ≥ 50%
Cc1cc(NC(=O)C2=C(O)CC(c3nc(-c4ccnc(F)c4)no3)NC2=O)on1 (stereo not shown) [3-121] | ≥ 50%
CON=Cc1cccc(-c2noc(C3CC(O)=C(C(=O)Nc4ccc(F)cn4)C(=O)N3)n2)c1 (stereo not shown) [3-124] | ≥ 50%
CON=C(C)c1cccc(-c2noc(C3CC(O)=C(C(=O)Nc4ccc(F)cn4)C(=O)N3)n2)c1 (stereo not shown) [3-125] | ≥ 50%
Cc1ccc(NC(=O)C2=C(O)CC(c3nc(-c4ccc(F)cc4)no3)NC2=O)nc1 (stereo not shown) [3-127] | ≥ 50%
Cc1ccc(NC(=O)C2=C(O)CC(c3nc(-c4cccc(F)c4)no3)NC2=O)nc1 (stereo not shown) [3-128] | ≥ 50%
Cc1ccc(NC(=O)C2=C(O)CC(c3nc(-c4ccccc4F)no3)NC2=O)nc1 (stereo not shown) [3-129] | ≥ 50%
COc1ccc(-c2noc(C3CC(O)=C(C(=O)Nc4ccc(F)cn4)C(=O)N3)n2)cc1 (stereo not shown) [3-137] | ≥ 50%
O=C(Nc1ccc(F)cn1)C1=C(O)CC(c2nc(-c3cc(F)c(F)c(F)c3)no2)NC1=O (stereo not shown) [3-138] | ≥ 50%
O=C(Nc1ccc(F)cn1)C1=C(O)CC(c2nc(-c3cc(F)c(F)cc3F)no2)NC1=O (stereo not shown) [3-139] | ≥ 50%
O=C(Nc1ccc(F)cn1)C1=C(O)CC(c2nc(-c3ccc(F)c(Cl)c3)no2)NC1=O (stereo not shown) [3-141] | ≥ 50%
O=C(Nc1ccc(F)cn1)C1=C(O)CC(c2nc(-c3ncc(C(F)(F)F)cc3Cl)no2)NC1=O (stereo not shown) [3-148] | ≥ 50%
Cn1ccc(NC(=O)C2=C(O)CC(c3nc(-c4ccc(F)cc4F)no3)NC2=O)n1 (stereo not shown) [3-154] | ≥ 50%
Cn1nc(Cl)c(-c2noc(C3CC(O)=C(C(=O)Nc4ccccn4)C(=O)N3)n2)c1Cl (stereo not shown) [3-170] | ≥ 50%
Cn1nc(Cl)c(-c2noc(C3CC(O)=C(C(=O)Nc4nccs4)C(=O)N3)n2)c1Cl (stereo not shown) [3-171] | ≥ 50%
O=C(Nc1ccc(Cl)cn1)C1=C(O)CC(c2nc(-c3cccc(F)c3)no2)NC1=O (stereo not shown) [3-180] | ≥ 50%
O=C(Nc1cc(F)ccn1)C1=C(O)CC(c2nc(-c3ccc(F)cc3F)no2)NC1=O (stereo not shown) [3-199] | ≥ 50%
Cn1ccc(NC(=O)C2=C(O)CC(c3nc(-c4ccc(F)cc4)no3)NC2=O)n1 (stereo not shown) [3-202] | ≥ 50%
O=C(Nc1ncc(Cl)cc1F)C1=C(O)CC(c2nc(-c3ccc(F)nc3)no2)NC1=O (stereo not shown) [3-271] | ≥ 50%
O=C(Nc1ccc(F)c(F)c1)C1=C(O)CC(c2nc(-c3ccc(F)nc3)no2)NC1=O (stereo not shown) [3-274] | ≥ 50%
Cc1cc(-c2noc(C3CC(O)=C(C(=O)Nc4cc(C(F)(F)F)n(C)n4)C(=O)N3)n2)ccn1 (stereo not shown) [3-275] | ≥ 50%

What follows are molecules tested on green peach aphids (Myzus persicae) (assay: Insecticidal test for green peach aphids). Conditions: 500 ppm chemical solution sprinkled (2.5 mg/cm^2), wingless imagoes on leaf disc, six days, 25°C; 8640 min.
Assay type: in vivo
Experimental: Wet absorbent cotton was laid on each glass dish having an inner diameter of 3 cm, a Chinese olive leaf cut into a circle having a diameter of 3 cm was placed thereon, and four wingless green peach aphids (Myzus persicae) imagoes were released. After a day, a 10% by mass emulsion of the presently invented compound prepared according to the above formulation example for an emulsion was diluted with water containing a spreader to prepare a chemical solution having a concentration of 500 ppm. The chemical solution prepared was sprinkled (2.5 mg/cm^2) with a rotary tower sprinkler, and the dishes were capped and accommodated in a thermostatic room at 25°C. […] The test was carried out in duplicate.

Compound | death rate
CCCOc1ccc(-c2cncc(C3CC(O)=C(C(=O)Nc4ccc(F)cc4)C(=O)N3)c2)cn1 (stereo not shown) [2-007] | ≥ 90%
O=C(Nc1ccc(Cl)nn1)C1=C(O)CC(c2cnc(Cl)c(-c3ccc(Cl)nc3)c2)NC1=O (stereo not shown) [2-046] | ≥ 90%
CSc1cccc(NC(=O)C2=C(O)CC(c3cnc(Cl)c(-c4cccc(C)c4)c3)NC2=O)c1 (stereo not shown) [2-284] | ≥ 90%
Cc1cccc(-c2cc(C3CC(O)=C(C(=O)Nc4cccc(S(C)(=O)=O)c4)C(=O)N3)cnc2Cl)c1 (stereo not shown) [2-285] | ≥ 90%
CN(C)c1ccc(-c2noc(C3CC(O)=C(C(=O)Nc4ccc(F)cn4)C(=O)N3)n2)cc1 (stereo not shown) [3-118] | ≥ 90%
Cc1ccc(NC(=O)C2=C(O)CC(c3nc(-c4ncccn4)no3)NC2=O)nc1 (stereo not shown) [3-167] | ≥ 90%
Cc1ccc(NC(=O)C2=C(O)CC(c3nc(-c4ccnc(F)c4)no3)NC2=O)c(C)c1 (stereo not shown) [3-266] | ≥ 90%

Same assay, conditions: Myzus persicae, foliar, 144 h; 500 ppm chemical solution sprinkled (2.5 mg/cm^2), wingless imagoes on leaf disc, six days, 25°C; read-out: death rate

Compound | mortality at 500 µg/mL
CC(=O)c1ccc(-c2cc(C3CC(O)=C(C(=O)Nc4ccc(F)cc4)C(=O)N3)ccc2C(F)(F)F)cc1 (stereo not shown) [1-012] | ≥ 90%
O=C(Nc1ccc(F)cc1)C1=C(O)CC(c2cncc(-c3cccc(C(F)(F)F)c3)c2)NC1=O (stereo not shown) [2-003] | ≥ 90%
COC(=O)c1ccc(NC(=O)C2=C(O)CC(c3cnc(Cl)c(-c4ccc(F)cc4)c3)NC2=O)cc1 (stereo not shown) [2-292] | ≥ 90%
CN(C)c1ccc(-c2noc(C3CC(O)=C(C(=O)Nc4ccc(F)cc4)C(=O)N3)n2)cc1 (stereo not shown) [3-117] | ≥ 90%

The molecules below were run on cat fleas (Ctenocephalides felis) (assay: whole plant or invertebrate). Conditions: 72 h, read-out: death rate.
Assay type: in vivo
In short: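 Glass containers (25 cm² inner surface) were coated with 250 µl of a 1000 ppm acetone solution, and the acetone was evaporated to leave a dry film. Five mixed-sex adult fleas were confined per container at 25°C. Mortality was scored after 3 days.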

Compound | mortality at 10 µg/cm2
CC(=O)c1ccc(-c2cc(C3CC(O)=C(C(=O)Nc4ccc(F)cc4)C(=O)N3)ccc2C(F)(F)F)cc1 (stereo not shown) [1-012] | ≥ 50%

Reference: EP4582413A1, “ARYLTETRAHYDROPYRIDINE COMPOUND AND PEST CONTROL AGENT” (priority 2022, dated 2024)
